Results taken from article PMC7211203 (European Journal of Drug Metabolism and Pharmacokinetics, 2020).
Entries after “also recorded” stand apart in the source; their conditions may differ. Read-outs that look alike come from different tables or passages of the source.

How the values were obtained:
[1] = format: in vivo, human; conditions: for Vd/F: Vz/F
CYP3A4 [2] = target: T1, CYP3A4 (Homo sapiens, UniProt P08684); format: in vivo
CYP3A4 [3] = target: T1, CYP3A4; conditions: 18 patients with solid tumors, before/after design; cited from earlier work
CYP3A = conditions: open-label, fixed-sequence study in 16 cancer patients; cited from earlier work
[4] = D −3, patients of comparison D14 vs D −3
[5] = human, plasma, oral, 4 mg, Plasma concentration, mean (standard deviation), D −3 midazolam only
[6] = human, plasma, oral, Plasma concentration, mean (standard deviation), D1 1 dose of lenvatinib and midazolam
[7] = human, plasma, oral, Plasma concentration, mean (standard deviation), D14 multiple doses of lenvatinib and 1 dose of midazolam

T1 sequence (P08684 whole entry): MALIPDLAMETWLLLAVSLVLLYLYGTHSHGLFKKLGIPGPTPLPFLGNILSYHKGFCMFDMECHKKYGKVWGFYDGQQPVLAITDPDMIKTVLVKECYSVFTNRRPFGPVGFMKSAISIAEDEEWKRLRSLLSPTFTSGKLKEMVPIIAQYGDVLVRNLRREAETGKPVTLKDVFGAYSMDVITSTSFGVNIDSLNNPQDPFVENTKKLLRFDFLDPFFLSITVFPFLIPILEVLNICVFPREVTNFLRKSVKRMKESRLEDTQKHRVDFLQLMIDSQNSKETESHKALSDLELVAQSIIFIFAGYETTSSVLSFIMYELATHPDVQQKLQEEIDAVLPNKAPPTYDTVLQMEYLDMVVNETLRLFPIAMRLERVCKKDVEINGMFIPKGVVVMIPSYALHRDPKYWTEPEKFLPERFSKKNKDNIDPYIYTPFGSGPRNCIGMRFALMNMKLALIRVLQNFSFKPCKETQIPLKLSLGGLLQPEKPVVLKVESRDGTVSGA

## Cc1ncc2n1-c1ccc(Cl)cc1C(c1ccccc1F)=NC2 [midazolam]
[1]; D14, comparison D14 vs D −3
  Cmax geometric mean, lenvatinib + midazolam (test): 24.76 ng/mL
[1]; D −3, patients of comparison D1 vs D −3
  Cmax geometric mean, midazolam (reference): 24.73 ng/mL
[1]; [4]
  AUC0–24 geometric mean, midazolam (reference): 0.0883 µg·h/mL
  Cmax geometric mean, midazolam (reference): 24.10 ng/mL
[1]; Day −3, midazolam alone, mean (SD)
  Cmax: 26.5 (10.7) ng/mL
[1]; [5]
  concentration at 1 h: 19 ng/mL
  concentration at 2 h: 13.1 ng/mL
  concentration at 3 h: 8.78 ng/mL
  concentration at 4 h: 6.12 ng/mL
  concentration at 6 h: 4.19 ng/mL
  concentration at 8 h: 3.24 ng/mL
  concentration at 10 h: 2.51 ng/mL
  concentration at 24 h: 0.53 ng/mL
[1]; human, plasma, oral, 4 mg, Day −3, midazolam alone, mean (SD)
  Vd/F: 382 L
[1]; human, plasma, oral, 4 mg, t1/2, Day −3, midazolam alone, mean (SD)
  half-life: 5.87 h
[1]; human, plasma, oral, AUC0–24, Day 14, midazolam with lenvatinib at steady state, mean (SD), n = 19
  AUC(0-t): 0.117 µg·h/mL
[1]; human, plasma, oral, Cmax, Day 1, with single dose of lenvatinib, mean (SD)
  Cmax: 24.8 ng/mL
[1]; human, plasma, oral, Cmax, Day 14, with lenvatinib at steady state, mean (SD)
  Cmax: 28.3 ng/mL
[1]; human, plasma, oral, Plasma concentration, mean (standard deviation), 0.5 h, D14 multiple doses of lenvatinib and 1 dose of midazolam
  concentration at 0.5 h: 23.7 ng/mL
[1]; [6]
  concentration at 1 h: 16.5 ng/mL
  concentration at 2 h: 11.3 ng/mL
  concentration at 3 h: 7.89 ng/mL
  concentration at 4 h: 5.67 ng/mL
  concentration at 6 h: 4.08 ng/mL
  concentration at 8 h: 2.96 ng/mL
  concentration at 10 h: 2.39 ng/mL
  concentration at 24 h: 0.628 ng/mL
[1]; [7]
  concentration at 1 h: 23.1 ng/mL
  concentration at 2 h: 13.9 ng/mL
  concentration at 3 h: 9.93 ng/mL
  concentration at 4 h: 7.58 ng/mL
  concentration at 6 h: 5.21 ng/mL
  concentration at 8 h: 4.05 ng/mL
  concentration at 10 h: 3.47 ng/mL
  concentration at 24 h: 1.25 ng/mL
[1]; human, plasma, oral, Plasma concentration, mean (standard deviation), 1.5 h, D14 multiple doses of lenvatinib and 1 dose of midazolam
  concentration at 1.5 h: 17.8 ng/mL
[1]; human, plasma, oral, Day 1, with single dose of lenvatinib, mean (SD)
  Vd/F: 481 L
[1]; human, plasma, oral, Day 14, with lenvatinib at steady state, mean (SD)
  Vd/F: 544 L
[1]; human, plasma, oral, t1/2, Day 1, with single dose of lenvatinib, mean (SD)
  half-life: 6.48 h
[1]; human, plasma, oral, t1/2, Day 14, with lenvatinib at steady state, mean (SD)
  half-life: 6.76 h
[1]; human, plasma, oral, tmax, Day 1, with single dose of lenvatinib, median (minimum, maximum)
  tmax: 0.63 h
CYP3A4 [2]; D1 and D14 vs D −3
  Change in t1/2 when administered with lenvatinib: little change; also recorded: no statistically significant change
CYP3A4 [2]; D1 vs D −3
  Difference in median tmax: 0.00 h
CYP3A4 [2]; D14 vs D −3
  Difference in median tmax: 0.00 h
CYP3A4 [2]; D −3, D1, D14
  Change in CL/F and Vz/F over time: no statistically significant change

## CC(C)C[C@H](NC(=O)[C@H](CCc1ccccc1)NC(=O)CN1CCOCC1)C(=O)N[C@@H](Cc1ccccc1)C(=O)N[C@@H](CC(C)C)C(=O)[C@@]1(C)CO1 [carfilzomib]
CYP3A4 [3]
  Effect on the pharmacokinetics of midazolam: No clinically significant effects

## CO[C@H]1C[C@@H]2CC[C@@H](C)[C@@](O)(O2)C(=O)C(=O)N2CCCC[C@H]2C(=O)O[C@H]([C@H](C)C[C@@H]2CC[C@@H](OP(C)(C)=O)[C@H](OC)C2)CC(=O)[C@H](C)/C=C(\C)[C@@H](O)[C@@H](OC)C(=O)[C@H](C)C[C@H](C)/C=C/C=C/C=C/1C [Ridaforolimus, ridaforolimus]
CYP3A
  Impact on CYP3A (midazolam probe): minimal inhibitory impact on CYP3A
